The values below come from article PMC317295 (BMC Pharmacology, 2003).

The term Kd denotes the equilibrium constant for the complex coming apart. A higher Kd goes with a looser complex.

In this test the target is β2-adrenergic receptor (β2AR) (Homo sapiens, UniProt P07550). Briefly: radioligand saturation binding on membranes.
β2-adrenergic receptor (β2AR), sequence (P07550 whole entry): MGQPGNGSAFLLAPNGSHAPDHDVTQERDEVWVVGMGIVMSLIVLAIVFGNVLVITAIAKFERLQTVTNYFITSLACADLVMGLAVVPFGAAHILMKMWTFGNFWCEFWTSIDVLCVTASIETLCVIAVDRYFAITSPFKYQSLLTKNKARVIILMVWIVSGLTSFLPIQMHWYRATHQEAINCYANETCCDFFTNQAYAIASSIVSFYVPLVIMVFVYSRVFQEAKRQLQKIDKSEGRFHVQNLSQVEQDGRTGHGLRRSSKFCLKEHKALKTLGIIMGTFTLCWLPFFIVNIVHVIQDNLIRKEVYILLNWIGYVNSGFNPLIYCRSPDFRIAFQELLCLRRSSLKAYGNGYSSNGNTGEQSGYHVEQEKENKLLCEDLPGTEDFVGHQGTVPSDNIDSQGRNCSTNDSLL

In the case of `CCCc1ccccc1OCC(O)CNC(C)C` (stereo not shown) [[3H]dihydroalprenolol], the affinity, expressed as Kd, was 0.42 ± 0.1 nM.
